Patent EP0182984B1, “Use of fully synthetic alpha-human atrial natriuretic peptide (alpha-hANap)” (PHARMA BISSENDORF PEPTIDE GMBH, priority 1984, dated 1992)

Conditions: in vivo
Source text: An LD₅₀ could so far not be determined.

## CC[C@H](C)[C@@H]1NC(=O)[C@H](CCCNC(=N)N)NC(=O)[C@H](CC(=O)O)NC(=O)[C@H](CCSC)NC(=O)[C@H](CCCNC(=N)N)NC(=O)CNC(=O)CNC(=O)[C@H](Cc2ccccc2)NC(=O)[C@@H](NC(=O)[C@H](CO)NC(=O)[C@H](CO)NC(=O)[C@H](CCCNC(=N)N)NC(=O)[C@H](CCCNC(=N)N)NC(=O)[C@H](CC(C)C)NC(=O)[C@@H](N)CO)CSSC[C@@H](C(=O)N[C@@H](CC(N)=O)C(=O)N[C@@H](CO)C(=O)N[C@@H](Cc2ccccc2)C(=O)N[C@@H](CCCNC(=N)N)C(=O)N[C@@H](Cc2ccc(O)cc2)C(=O)O)NC(=O)CNC(=O)[C@H](CC(C)C)NC(=O)CNC(=O)[C@H](CO)NC(=O)[C@H](CCC(N)=O)NC(=O)[C@H](C)NC(=O)CNC1=O [alpha-hANaP, alpha-human atrial natriuretic peptide]
  side-effects to the heart and circulation system, to the bronchial system, to the liver and renal functions, to the gonads, and to the central nervous system: No serious side-effects
